In patent US20110060048A1, “Removing alcohol in vivo through esterification” (priority 2009, published 2011):
Like-named read-outs stand apart in the source and are kept apart here.

Key:
[1] = eight male volunteers, alcoholic beverage followed by 30 grams of fructose or sucrose, hourly measurements; cited from earlier work
[2] = for C2H5OH % Decrease at Equilibrium, Trial 2 / C2H5OH % Decrease at Equilibrium, Trial 3 / C2H5OH % Decrease at Equilibrium, Trial 4 / C2H5OH % Decrease at Equilibrium, Trial 5 / C2H5OH % Decrease at Equilibrium, Average / C2H5OH % Decrease at Equilibrium, Trial 1: equal acetic acid
Method: Titrations with potassium permanganate (KMnO4) were later performed after the contents of each beaker received 5 minutes each of vigorous stirring and 25 minutes of inactivity to compare the final amount of ethanol left with the original amount.
In the following we describe the detailed procedure of in vitro experiment to verify the validity of reducing the amount of ethanol by esterification: • 1. Label four 100-mL beakers, 0.4 M, 0.6 M, 0.8 M, and 1.0 M. • 2. Put 17.15 mL of distilled water into each. • 3. Add 0.4 mL of concentrated ethanol to the first beaker, 0.6 mL to the second, 0.8 mL to the third, and 1.0 mL to the fourth. Swivel each beaker gently for 20-30 seconds to ensure mixing. See calculations below for explanation. • 4. Add another 17.15 mL of water to each beaker • 5. […] See calculations below for explanation. • 6. Stir each sample vigorously for five minutes in succession. […] Put on latex gloves before handling potassium permanganate. • 8. Set up two burettes, and fill each with approximately 100 mL of 0.2 M potassium permanganate. This will enable two titrations to be simultaneously done. • 9. Record the initial volume of potassium permanganate present in both burettes. • 10. Place 1.0 M and 0.8 M beakers on hot plate, and turn to power level 3. Heating quickens the titration process. • 11. Slowly drip KMnO4 into beakers while stirring. Make sure that each beaker is consistently titrated with the same burette to ensure that the exact volumes of KMnO4 that each beaker received can be easily calculated. • 12. Potassium permanganate is purple in color. When reacted with ethanol, a brown color (manganese oxide, MnO2) appears. The reaction is as follows:
When potassium permanganate ceases to be converted into manganese oxide, and the purple color stays, the titration is finished. There is no ethanol left in the beaker to react with potassium permanganate. • 13. Remove both beakers from hot plate. Measure the volume of potassium permanganate remaining in each burette. Subtract from the original volumes to find the volume of KMnO4 consumed in each reaction. • 14. Repeat steps 9-13 for the 0.6 M and 0.4 M beakers. • 15. Use stoichiometry to calculate the molar amount of 0.2 M potassium permanganate used in each titration. • 16. Ethanol and potassium permanganate react in a 3:4 molar ratio, according to the equation 3C2H5OH+4KMnO4→3CH3COOH+4MnO2+4KOH+H2O.
Again, use a chain calculation to calculate the molar amount of ethanol remaining in each beaker, then divide by […] to convert to molarity. Compare to the molarity of ethanol originally in each beaker. Calculate % error. • 17. Results (see Table 2)

## OC[C@H]1O[C@@](CO)(O[C@H]2O[C@H](CO)[C@@H](O)[C@H](O)[C@H]2O)[C@@H](O)[C@@H]1O [sucrose]
[1]
  percent of ethanol decrease (plateau, on average): 29%

## CC(=O)O [acetic acid]
[2]; 0.4-1.0 M ethanol with same volume and concentration of acetic acid
  decrease in the amount of ethanol when the system reaches equilibrium: 79-86%
[2]; equal molar number of acetic acid added to the ethanol solution, 5 repeats
  reduction of the ethanol amount: 80-90%
[2]; initial C2H5OH 0.4 M
  C2H5OH % Decrease at Equilibrium, Trial 2: 78.1%
  C2H5OH % Decrease at Equilibrium, Trial 3: 81.5%
  C2H5OH % Decrease at Equilibrium, Trial 4: 81.2%
  C2H5OH % Decrease at Equilibrium, Trial 5: 80.0%
[2]; initial C2H5OH 0.4 M, average of trials
  C2H5OH % Decrease at Equilibrium, Average: 80.2%
[2]; initial C2H5OH 0.6 M
  C2H5OH % Decrease at Equilibrium, Trial 2: 82.7%
  C2H5OH % Decrease at Equilibrium, Trial 3: 83.8%
  C2H5OH % Decrease at Equilibrium, Trial 4: 83.7%
  C2H5OH % Decrease at Equilibrium, Trial 5: 82.5%
[2]; initial C2H5OH 0.6 M, average of trials
  C2H5OH % Decrease at Equilibrium, Average: 83.2%
[2]; initial C2H5OH 0.8 M
  C2H5OH % Decrease at Equilibrium, Trial 1: 89.1%
  C2H5OH % Decrease at Equilibrium, Trial 2: 86.2%
  C2H5OH % Decrease at Equilibrium, Trial 3: 84.7%
  C2H5OH % Decrease at Equilibrium, Trial 4: 84.6%
  C2H5OH % Decrease at Equilibrium, Trial 5: 85.5%
[2]; initial C2H5OH 0.8 M, average of 5 trials
  C2H5OH % Decrease at Equilibrium, Average: 86.0%
[2]; initial C2H5OH 1.0 M
  C2H5OH % Decrease at Equilibrium, Trial 1: 91.3%
  C2H5OH % Decrease at Equilibrium, Trial 2: 88.8%
  C2H5OH % Decrease at Equilibrium, Trial 3: 86.5%
  C2H5OH % Decrease at Equilibrium, Trial 4: 91.1%
  C2H5OH % Decrease at Equilibrium, Trial 5: 90.4%
[2]; initial C2H5OH 1.0 M, average of 5 trials
  C2H5OH % Decrease at Equilibrium, Average: 89.6%

## O=C(CO)[C@@H](O)[C@H](O)[C@H](O)CO [fructose]
[1]
  percent of ethanol decrease (plateau, on average): 29%
